Patent publication US9708334B2, “Substituted 2,4,5,6-tetrahydropyrrolo[3,4-c]pyrazole and 4,5,6,7-tetrahydro-2H-pyrazolo[4,3-c]pyridine compounds as GlyT1 inhibitors” (DART NEUROSCIENCE (CAYMAN) LTD., priority 2014, dated 2017)

Target: T1, GlyT1 (Homo sapiens, UniProt P48067)
T1 construct: expressed in transfected cells
T1 sequence (P48067 1-706): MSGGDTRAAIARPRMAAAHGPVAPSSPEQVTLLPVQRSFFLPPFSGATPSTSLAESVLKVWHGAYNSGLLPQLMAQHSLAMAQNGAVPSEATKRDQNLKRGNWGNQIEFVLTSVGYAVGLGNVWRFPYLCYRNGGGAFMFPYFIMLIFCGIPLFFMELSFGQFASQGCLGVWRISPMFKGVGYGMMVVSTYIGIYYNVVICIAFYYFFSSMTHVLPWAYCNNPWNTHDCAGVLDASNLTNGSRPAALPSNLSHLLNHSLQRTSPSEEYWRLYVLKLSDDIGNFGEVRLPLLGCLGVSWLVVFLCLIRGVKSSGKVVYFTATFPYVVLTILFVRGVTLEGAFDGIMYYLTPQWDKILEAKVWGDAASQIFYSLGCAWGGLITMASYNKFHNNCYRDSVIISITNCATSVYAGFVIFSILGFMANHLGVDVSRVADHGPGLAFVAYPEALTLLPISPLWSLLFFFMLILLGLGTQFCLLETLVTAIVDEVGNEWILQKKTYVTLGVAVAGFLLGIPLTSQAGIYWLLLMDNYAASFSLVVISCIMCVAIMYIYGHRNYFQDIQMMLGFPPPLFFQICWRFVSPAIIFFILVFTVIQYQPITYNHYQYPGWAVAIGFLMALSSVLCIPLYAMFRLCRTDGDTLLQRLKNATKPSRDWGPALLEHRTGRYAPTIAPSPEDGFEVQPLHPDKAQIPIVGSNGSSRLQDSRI
Experiment: Glycine Transporter 1 (GlyT1) uptake assay, scintillation proximity assay of [14C]-glycine uptake
Format: cell-based
Conditions: SPA, four parameter logistic fit, read-out: GlyT1 (pIC50) (converted)
How it was run: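 IC50 values derive from four-parameter logistic curves fitted to dose-response data. Uptake of [14C]-glycine measured in scintillation proximity format.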

`CC(C)Oc1ccc(C#N)cc1C(=O)N1Cc2cn(CC3CCC3)nc2C1` [Example 411, 3-[2-(Cyclobutylmethyl)-2H 4H 5H 6H-pyrrolo[3,4-c]pyrazole-5-carbonyl]-4-(propan-2-yloxy)benzonitrile] gave an IC50 of 100 to 1000 nM.

`C[C@H](Oc1ccc(C#N)cc1C(=O)N1Cc2cn(C3CCOCC3)nc2C1)C(F)(F)F` [Example 412, 3-[2-(Oxan-4-yl)-2H 4H 5H 6H-pyrrolo[3,4-c]pyrazole-5-carbonyl]-4-{[(2S)-1 1 1-trifluoropropan-2-yl]oxy}benzonitrile] showed an IC50 of less than 100 nM.

`C[C@H](Oc1ccc(S(C)(=O)=O)cc1C(=O)N1Cc2cn(CC3CCCC3)nc2C1)C(F)(F)F` [Example 413, 2-(Cyclopentylmethyl)-5-(5-methanesulfonyl-2-{[(2S)-1 1 1-trifluoropropan-2-yl]oxy}benzoyl)-2H 4H 5H 6H-pyrrolo[3,4-c]pyrazole] was tested, and the IC50 was less than 100 nM.

`C[C@H](Oc1ccc(C#N)cc1C(=O)N1Cc2cn(CC3CCCC3)nc2C1)C(F)(F)F` [Example 414, 3-[2-(Cyclopentylmethyl)-2H 4H 5H 6H-pyrrolo[3,4-c]pyrazole-5-carbonyl]-4-{[(2S)-1 1 1-trifluoropropan-2-yl]oxy}benzonitrile] was tested, and the IC50 was 100 to 1000 nM.

Work on `CCS(=O)(=O)c1ccc(OC(C)C)c(C(=O)N2Cc3cn(C4CCCC4)nc3C2)c1` [Example 415, 2-Cyclopentyl-5-[5-(ethanesulfonyl)-2-(propan-2-yloxy)benzoyl]-2H 4H 5H 6H-pyrrolo[3,4-c]pyrazole] yielded an IC50 of less than 100 nM.

Work on `CC[C@H](C)Cn1cc2c(n1)CN(C(=O)c1cc(C#N)ccc1OC(C)C)C2` [Example 416, 3-{2-[(2S)-2-Methylbutyl]-2H 4H 5H 6H-pyrrolo[3,4-c]pyrazole-5-carbonyl}-4-(propan-2-yloxy)benzonitrile] yielded an IC50 of 100 to 1000 nM.

In the case of `CCS(=O)(=O)c1ccc(O[C@@H](C)C(F)(F)F)c(C(=O)N2Cc3cn(C4CCCC4)nc3C2)c1` [Example 417, 2-Cyclopentyl-5-[5-(ethanesulfonyl)-2-{[(2S)-1 1 1-trifluoropropan-2-yl]oxy}benzoyl]-2H 4H 5H 6H-pyrrolo[3,4-c]pyrazole], the IC50 is reported as less than 100 nM.

`CC[C@H](C)Cn1cc2c(n1)CN(C(=O)c1cc(C#N)ccc1O[C@@H](C)C(F)(F)F)C2` [Example 418, 3-{2-[(2S)-2-Methylbutyl]-2H 4H 5H 6H-pyrrolo[3,4-c]pyrazole-5-carbonyl}-4-{[(2S)-1 1 1-trifluoropropan-2-yl]oxy}benzonitrile] was tested, and the IC50 was 100 to 1000 nM.

With `C[C@H](Oc1ccc(C#N)cc1C(=O)N1Cc2cn(CC3CCOC3)nc2C1)C(F)(F)F` (stereo partly drawn) [Example 419, 3-[2-(Oxolan-3-ylmethyl)-2H 4H 5H 6H-pyrrolo[3,4-c]pyrazole-5-carbonyl]-4-{[(2S)-1 1 1-trifluoropropan-2-yl]oxy}benzonitrile] the IC50 was 100 to 1000 nM.

`CC(C)Oc1ccc(C#N)cc1C(=O)N1Cc2cn(CC3CCOC3)nc2C1` (centres unmarked) [Example 420, 3-[2-(Oxolan-3-ylmethyl)-2H 4H 5H 6H-pyrrolo[3,4-c]pyrazole-5-carbonyl]-4-(propan-2-yloxy)benzonitrile] gave an IC50 of 100 to 1000 nM.

In the case of `C[C@H](Oc1ccc(C#N)cc1C(=O)N1Cc2cnn(-c3ccnnc3)c2C1)C(F)(F)F` [Example 421, 3-[1-(Pyridazin-4-yl)-1H 4H 5H 6H-pyrrolo[3,4-c]pyrazole-5-carbonyl]-4-{[(2S)-1 1 1-trifluoropropan-2-yl]oxy}benzonitrile], the IC50 is reported as 100 to 1000 nM.

`CC(C)Oc1ccc(C#N)cc1C(=O)N1Cc2cn(-c3ccnnc3)nc2C1` [Example 422, 4-(Propan-2-yloxy)-3-[2-(pyridazin-4-yl)-2H 4H 5H 6H-pyrrolo[3,4-c]pyrazole-5-carbonyl]benzonitrile] showed an IC50 of 100 to 1000 nM.

`C[C@H](Oc1ccc(C#N)cc1C(=O)N1Cc2cn(-c3ccnnc3)nc2C1)C(F)(F)F` [Example 423, 3-[2-(Pyridazin-4-yl)-2H 4H 5H 6H-pyrrolo[3,4-c]pyrazole-5-carbonyl]-4-{[(2S)-1 1 1-trifluoropropan-2-yl]oxy}benzonitrile] showed an IC50 of less than 100 nM.

`CC(C)Oc1ccc(C#N)cc1C(=O)N1Cc2cn(-c3ccn4ccnc4c3)nc2C1` [Example 424, 3-(2-{Imidazo[1 2-a]pyridin-7-yl}-2H 4H 5H 6H-pyrrolo[3,4-c]pyrazole-5-carbonyl)-4-(propan-2-yloxy)benzonitrile] gave an IC50 of 1000 to 10000 nM.

`C[C@H](Oc1ccc(C#N)cc1C(=O)N1Cc2cn(-c3ccn4ccnc4c3)nc2C1)C(F)(F)F` [Example 425, 3-(2-{Imidazo[1 2-a]pyridin-7-yl}-2H 4H 5H 6H-pyrrolo[3,4-c]pyrazole-5-carbonyl)-4-{[(2S)-1 1 1-trifluoropropan-2-yl]oxy}benzonitrile] was tested, and the IC50 was 100 to 1000 nM.

With `CS(=O)(=O)c1ccc(-c2cccc(F)c2)c(C(=O)N2Cc3cn(CC4CCC4)nc3C2)c1` [Example 426, 2-(Cyclobutylmethyl)-5-[2-(3-fluorophenyl)-5-methanesulfonylbenzoyl]-2H 4H 5H 6H-pyrrolo[3,4-c]pyrazole] the IC50 was less than 100 nM.

In the case of `CC(C)Cn1cc2c(n1)CN(C(=O)c1cc(S(C)(=O)=O)ccc1-c1cccc(F)c1)C2` [Example 427, 5-[2-(3-Fluorophenyl)-5-methanesulfonylbenzoyl]-2-(2-methylpropyl)-2H 4H 5H 6H-pyrrolo[3,4-c]pyrazole], the IC50 is reported as less than 100 nM.

`CCS(=O)(=O)c1ccc(N2CCC(F)(F)CC2)c(C(=O)N2Cc3cn(CC4CCC4)nc3C2)c1` [Example 428, 1-{2-[2-(Cyclobutylmethyl)-2H 4H 5H 6H-pyrrolo[3,4-c]pyrazole-5-carbonyl]-4-(ethanesulfonyl)phenyl}-4 4-difluoropiperidine] was tested, and the IC50 was less than 100 nM.

`CS(=O)(=O)c1ccc(N2CCC(F)(F)CC2)c(C(=O)N2Cc3cn(C4CCCC4)nc3C2)c1` [Example 430, 1-(2-{2-Cyclopentyl-2H 4H 5H 6H-pyrrolo[3,4-c]pyrazole-5-carbonyl}-4-methanesulfonylphenyl)-4 4-difluoropiperidine] gave an IC50 of less than 100 nM.

`CS(=O)(=O)c1ccc(N2CCC(F)(F)CC2)c(C(=O)N2Cc3cn(CC4CCC4)nc3C2)c1` [Example 431, 1-{2-[2-(Cyclobutylmethyl)-2H 4H 5H 6H-pyrrolo[3,4-c]pyrazole-5-carbonyl]-4-methanesulfonylphenyl}-4 4-difluoropiperidine] showed an IC50 of less than 100 nM.

In the case of `CC(C)Cn1cc2c(n1)CN(C(=O)c1cc(S(C)(=O)=O)ccc1N1CCC(F)(F)CC1)C2` [Example 432, 4 4-Difluoro-1-{4-methanesulfonyl-2-[2-(2-methylpropyl)-2H 4H 5H 6H-pyrrolo[3,4-c]pyrazole-5-carbonyl]phenyl}piperidine], the IC50 is reported as less than 100 nM.

`CC(C)n1cc2c(n1)CN(C(=O)c1cc(S(C)(=O)=O)ccc1N1CCC(F)(F)CC1)C2` [Example 433, 4 4-Difluoro-1-{4-methanesulfonyl-2-[2-(propan-2-yl)-2H 4H 5H 6H-pyrrolo[3,4-c]pyrazole-5-carbonyl]phenyl}piperidine] gave an IC50 of 100 to 1000 nM.

`CC(C)(F)Cn1cc2c(n1)CN(C(=O)c1cc(S(C)(=O)=O)ccc1-c1cccc(F)c1)C2` [Example 434, 2-(2-Fluoro-2-methylpropyl)-5-[2-(3-fluorophenyl)-5-methanesulfonylbenzoyl]-2H 4H 5H 6H-pyrrolo[3,4-c]pyrazole] was tested, and the IC50 was 100 to 1000 nM.

For `CC1(COc2ccc(S(C)(=O)=O)cc2C(=O)N2Cc3cn(-c4ccccc4)nc3C2)COC1` [Example 435, 5-{5-Methanesulfonyl-2-[(3-methyloxetan-3-yl)methoxy]benzoyl}-2-phenyl-2H 4H 5H 6H-pyrrolo[3,4-c]pyrazole], the IC50 was less than 100 nM.

Compound `CC1(COc2ccc(S(C)(=O)=O)cc2C(=O)N2Cc3cn(-c4ccccc4F)nc3C2)COC1` [Example 436, 2-(2-Fluorophenyl)-5-{5-methanesulfonyl-2-[(3-methyloxetan-3-yl)methoxy]benzoyl}-2H 4H 5H 6H-pyrrolo[3,4-c]pyrazole] has an IC50 of 100 to 1000 nM.

In the case of `Cc1cccc(-n2cc3c(n2)CN(C(=O)c2cc(S(C)(=O)=O)ccc2OCC2(C)COC2)C3)c1` [Example 437, 5-{5-Methanesulfonyl-2-[(3-methyloxetan-3-yl)methoxy]benzoyl}-2-(3-methylphenyl)-2H 4H 5H 6H-pyrrolo[3,4-c]pyrazole], the IC50 is reported as less than 100 nM.

Compound `CC1(COc2ccc(S(C)(=O)=O)cc2C(=O)N2Cc3cn(-c4cccc(C(F)(F)F)c4F)nc3C2)COC1` [Example 438, 2-[2-Fluoro-3-(trifluoromethyl)phenyl]-5-{5-methanesulfonyl-2-[(3-methyloxetan-3-yl)methoxy]benzoyl}-2H 4H 5H 6H-pyrrolo[3,4-c]pyrazole] has an IC50 of 100 to 1000 nM.

For `CC1(COc2ccc(S(C)(=O)=O)cc2C(=O)N2Cc3cn(-c4cc(Cl)ccc4F)nc3C2)COC1` [Example 439, 2-(5-Chloro-2-fluorophenyl)-5-{5-methanesulfonyl-2-[(3-methyloxetan-3-yl)methoxy]benzoyl}-2H 4H 5H 6H-pyrrolo[3,4-c]pyrazole], the IC50 was 100 to 1000 nM.

Compound `CC1(COc2ccc(S(C)(=O)=O)cc2C(=O)N2Cc3cn(-c4ccc(F)cc4)nc3C2)COC1` [Example 440, 2-(4-Fluorophenyl)-5-{5-methanesulfonyl-2-[(3-methyloxetan-3-yl)methoxy]benzoyl}-2H 4H 5H 6H-pyrrolo[3,4-c]pyrazole] has an IC50 of less than 100 nM.
